These results are taken from US20250262209A1, “TREATMENT OF GASTROINTESTINAL DISEASES” (Aclipse Two, Inc., priority 2022, published 2025).

Experiment [1] deals with monocytes from PBMC, M1-to-M2 macrophage repolarization. Nature of the experiment: M1-to-M2 macrophage repolarization assay. The experiment is classed as cell-based, human. The text has this: The purpose of this study was to evaluate the effects of lobeglitazone and other thiazolidinediones on M1-to-M2 macrophage repolarization. The test articles and vehicles used in this study were lobeglitazone sulfate, pioglitazone HCl, and rosiglitazone.
M1-to-M2 macrophage repolarization assay timeline were as follows in Table 13.
Drug concentrations tested in the M1 differentiation assay are as in Table 14.
• (1) Isolate monocytes from PBMC using StemCell® monocyte isolation kit. • (2) Count cell and adjust the cell density to 0.5×10^6 cells/ml with fresh complete differentiation medium (add 10 μl M-CSF stock (100 μg/ml) 10 ml cell mixture to a final concentration of 50 ng/ml). • (3) Seed isolated monocyte 100 μL per well on 96-well plate. • (4) On day 4, add additional 100 μl medium containing M-CSF • (5) On day 6, add stimulator at 5× final concentration (200 μL medium in each well) to a final concentration of 50 ng/ml. • (6) On day 8, remove medium and replenish with 200 μL cytokine free medium, then add test compound (final concentration in μM) and incubate for 4 days. • (7) On day 12, add IL-4 and incubate for 2 days (add 50 μL of 100 ng/ml IL-4 to each well containing 200 μL medium to reach 20 ng/ml). • (8) On day 14, spin down the plates at 300×g for 5 min and collect the supernatant for cytokine quantification. • (9) M1 and M2 associated macrophage cytokines of interest are as follows in Table 15.
The cells are then collected for flow analysis of viability/CD11c/CD163/CD206.
Cell surface marker CD163, CD11c, and CD206 were applied to characterize M2 repolarization via flow cytometry. Controls included No stain and staining with all surface marker antibodies to confirm the optimization of gating strategy.

The subject of experiment [2] is DSS-induced IBD model in female Balb/c mice. As to the kind of experiment: DSS-induced IBD model: body weight, DAI score, colon length and weight. The format is in vivo. To be noted: for DAI score: lobeglitazone groups (0.36, 1.20, 3.61 mg/kg PO QD). As to the method:
The purpose of this study was to test the efficacy of compound lobeglitazone in the DSS-induced IBD model in female Balb/c mice following oral administration. The study was conducted at an AAALAC accredited facility, and all animal study procedures were approved by the Institutional Animal Care and Use Committee (IACUC).
Precise amount of lobeglitazone sulfate (lot: EW34258-13-P1; purity: 97.6%) was weighted out into a clean tube, 0.5% CMC was added and vortexed fully, then sonicated 2-3 minutes to get an even suspension. The concentration of the solution was 0.361 mg/ml, 0.120 mg/mL, and 0.036 mg/mL. The dosing solution was freshly made daily until the end of the study. The compound was orally (PO), 10 mL/kg daily dosed for 10 days.
Totally 125.82 mg cyclosporin A (CSA, purity 98%) was weighed out into a clean tube, 2.055 mL castor oil was added firstly, then 39.046 mL […] (with 0.1% tween80) was added, vortexed fully, then sonicated 10 min to get a clear solution. The concentration of the solution was 3 mg/mL. The compound was PO, 10 mL/kg daily dosed for 10 days.
5% DSS preparation: […] DSS powder was weighted out into a clean bottle, 1 L Milli Q water was added subsequently, the solution was stirred until it was clear. Then 5% DSS was transferred to water bottle of the animal. 5% DSS was freshly made daily until the end of the study.
A total of 50 (7 weeks old) female Balb/c were purchased from Beijing Vital River Laboratory Animal Technology Co., Ltd. Animals were acclimatized for 1 week prior to the experiment. All the in vivo experimental procedures were approved by the institutional animal care and use committee (IACUC). All euthanasia was performed using carbon dioxide inhalation and all efforts were made to minimize animal suffering.
At the beginning of the study, randomization was performed based on body weight. All animals were randomly assigned to one of six groups (Table 1). The study schedule is described in FIG. 1.
DAI score was calculated by the sum of weight loss score, stool consistency score, and occult-gross bleeding score. Body weight loss was calculated by comparison with the body weight on day 1. Feces samples were collected from each individual animal, and stool consistency and occult-gross bleeding were evaluated according to Table 2. Stool Consistency was evaluated by the appearance of the feces. Occult-gross bleeding was evaluated using Fecal Occult Blood test strips. Occult bleeding score of 1 will be assigned if light or dark purple color developed within 20 seconds and longer than 15 seconds. Occult bleeding score of 2 was assigned if light or dark purple color developed within 15 seconds. Occult-gross bleeding score of 3 would be assigned if blood was visible in the feces.
Animals were euthanized by CO2 at the end of study. Colon length and colon weight (cecum is not included) were recorded, and macroscopic changes were scored based on Table 2. The colon was cleaned using saline, and all feces were removed before weight measurement. The middle part of colon was collected in cassette and fixed in 10% neutral buffered formalin (NBF) for H&E and PAS staining. For left colon, mucosal from colon surface was removed and then snap frozen in liquid nitrogen and store at −80° C. for QT-PCR analysis of TNF-α, IL-10, CCL2, and IL-1β. QT-PCR primers were purchased from Sangon Biotech Co., Ltd.
In vivo animal data were presented as mean±SEM. Statistical analysis was performed by one-way ANOVA followed by Dunnett's multiple comparison. […] The difference was considered significance when p<0.05.

Where [3] appears, read: lobeglitazone groups (0.36, 1.20, 3.61 mg/kg PO QD 10 days), vs control group.

On to `COc1ccc(Oc2cc(N(C)CCOc3ccc(CC4SC(=O)NC4=O)cc3)ncn2)cc1` (stereo not shown) [lobeglitazone, 5-(4-(2-((6-(4-Methoxyphenoxy)pyrimidin-4-yl)(methyl)amino)ethoxy)benzyl)thiazolidine-2,4-dione], for which the “concentration at which M1-to-M2 repolarization was promoted (M2 macrophage surface markers, flow cytometry)” value in experiment [1] (CD163, CD11c, CD206, lowest concentration with effect) is roughly 0.05 µM. Moreover, the “concentration showing remarkable promotion of MDC expression” value in experiment [1] (cytokine analysis (MSD), day 14 supernatant) was determined as 0.1 µM. Besides, the body weight changes result in experiment [2] (0.36 mg/kg PO QD, vs control group) was “no significant body weight changes”; in experiment [2] (1.20 mg/kg PO QD, vs control group), “no significant body weight changes”; in experiment [2] (3.61 mg/kg PO QD, day 2, vs control (no drug) group), “significantly reduced”. Besides, in experiment [2] (setting [3]), the colon length result was “did not significantly increase”. Moreover, in experiment [2] (setting [3]), the colon length/weight ratio result is “did not significantly decrease”. Further, the colon weight entry in experiment [2] (setting [3]) is given as “did not significantly change”. Further, the DAI score result in experiment [2] (vs control group) is “did not significantly reduce”; in experiment [2] (vs control group, listed as Lobeglitazone), “did not significantly decrease”.
